Results on 34 compounds are retold here after PubChem BioAssay AID743350 (Broad Institute, 2014).

As a reminder, the IC90 is the concentration at which the effect reaches the 90% level.

Activity calls are given as the source filed them. How the calls were made is not given here. Bounds are passed on as bounds.

In the test the test system is M. tuberculosis wild type, biotin-free medium, growth. In words: growth inhibition of wild-type M. tuberculosis, biotin-free medium, single point, dry powder (AID 743350).
For `COc1ccc(NC(=O)N2CC[C@@H]3[C@@H](CO)N(C)c4ccc(-c5cccc(F)c5)cc4[C@@H]32)cc1`, the IC90 is > 50 µM (inactive).

As to `CCCNC(=O)N1CC[C@@H]2[C@@H](CO)N(C)c3ccc(-c4ccc(F)cc4)cc3[C@@H]21`, the IC90 is > 50 µM (inactive). Consider `CN1c2ccc(-c3ccc(F)cc3)cc2[C@H]2[C@H](CCN2C(=O)Cc2ccccn2)[C@H]1CO`, for which the IC90 is > 50 µM (inactive). To `CC(=O)c1ccc(NCCNC(=O)c2ccc3c(c2)OCO3)cc1` belongs > 50 µM (inactive). Turning to `CNC(=O)c1ccc(N2CCN(C(=O)c3ccc4c(c3)OCO4)CC2)cc1`, the IC90 is > 50 µM (inactive). On to `CCCCCCCC(=O)N1CC[C@@H]2[C@@H](CO)N(C)c3ccc(-c4cccc(F)c4)cc3[C@@H]21`, for which the IC90 was > 50 µM (inactive). In the case of `COC(=O)CCCCCCC(=O)N1CC[C@@H]2[C@@H](CO)N(C)c3ccc(-c4cccc(F)c4)cc3[C@@H]21`, the IC90 is > 50 µM (inactive). With `CC(=O)c1ccc(N2CCN(C(=O)c3ccccc3F)CC2)cc1`, the IC90 is > 50 µM (inactive). Take `CN(C)C(=O)c1ccc(N2CCN(C(=O)c3ccc4c(c3)OCO4)CC2)cc1`: the IC90 was > 50 µM (inactive). For the compound `COc1ccccc1C(=O)N1CCN(c2ccc(C(C)=O)cc2)CC1`, the IC90 was > 50 µM (inactive). Take `CC(C)NC(=O)N1CC[C@@H]2[C@@H](CO)N(C)c3ccc(-c4cccc(F)c4)cc3[C@@H]21`: the IC90 was > 50 µM (inactive). For `CN1c2ccc(-c3cccc(F)c3)cc2[C@H]2[C@H](CCN2C(=O)Cc2ccccc2)[C@H]1CO`, the IC90 is > 50 µM (inactive).

On to `CC(=O)c1ccc(N2CCN(C(=O)c3ccccc3Cl)CC2)cc1`, for which the IC90 was > 50 µM (inactive).

Consider `CC(=O)c1ccc(N2CCN(C(=O)c3ccc4c(c3)OCO4)[C@H](C)C2)cc1`, for which the IC90 was 27.3 µM. Take `CN1c2ccc(-c3ccc(F)cc3)cc2[C@H]2[C@H](CCN2C(=O)Nc2ccc(F)cc2)[C@H]1CO`: the IC90 is > 50 µM (inactive). As for `COc1cccc(NC(=O)N2CC[C@@H]3[C@@H](CO)N(C)c4ccc(-c5cccc(F)c5)cc4[C@@H]32)c1`, the figure is > 50 µM (inactive); as for `COc1ccccc1NC(=O)N1CC[C@@H]2[C@@H](CO)N(C)c3ccc(-c4ccc(F)cc4)cc3[C@@H]21`, > 50 µM (inactive).

In the case of `CN1c2ccc(-c3cccc(F)c3)cc2[C@@H]2[C@@H](CCN2C(=O)c2ccc3c(c2)OCO3)[C@@H]1CO`, the IC90 is > 50 µM (inactive). For the compound `CN1c2ccc(-c3cccc(F)c3)cc2[C@@H]2[C@@H](CCN2C(=O)c2ccc3c(c2)OCO3)[C@H]1CO`, the IC90 is > 50 µM (inactive). Take `CN1c2ccc(-c3ccc(F)cc3)cc2[C@H]2[C@H](CCN2C(=O)Cc2cccnc2)[C@H]1CO`: the IC90 is > 50 µM (inactive). Turning to `CN1c2ccc(-c3cccc(F)c3)cc2[C@H]2[C@H](CCN2C(=O)c2ccc3c(c2)OCO3)[C@@H]1CO`, the IC90 was > 50 µM (inactive).

On to `CN1c2ccc(-c3ccc(F)cc3)cc2[C@H]2[C@H](CCN2C(=O)Nc2cc(F)ccc2F)[C@H]1CO`, for which the IC90 is > 50 µM (inactive). On to `CN1c2ccc(-c3cccc(F)c3)cc2[C@H]2[C@H](CCN2C(=O)Nc2ccccc2F)[C@H]1CO`, for which the IC90 is > 50 µM (inactive). To `CC(=O)c1ccc(N2CCN(C(=O)c3ccc4c(c3)OCO4)CC2)cc1` belongs 39.7 µM; to `CNS(=O)(=O)c1ccc(N2CCN(C(=O)c3ccc4c(c3)OCO4)CC2)cc1`, > 50 µM (inactive).

`COc1ccccc1NC(=O)N1CC[C@@H]2[C@@H](CO)N(C)c3ccc(-c4cccc(F)c4)cc3[C@@H]21`: the IC90 was > 50 µM (inactive).

Turning to `CN1c2ccc(-c3cccc(F)c3)cc2[C@H]2[C@H](CCN2C(=O)CCCCCCC(=O)O)[C@H]1CO`, the IC90 is > 50 µM (inactive). Consider `COc1ccc(NC(=O)N2CC[C@@H]3[C@@H](CO)N(C)c4ccc(-c5ccc(F)cc5)cc4[C@@H]32)cc1`, for which the IC90 was > 50 µM (inactive). As to `CN1c2ccc(-c3cccc(F)c3)cc2[C@H]2[C@H](CCN2C(=O)CCCCCCN)[C@H]1CO`, the IC90 was > 50 µM (inactive).

Take `CCC(=O)N1CC[C@@H]2[C@@H](CO)N(C)c3ccc(-c4ccc(F)cc4)cc3[C@@H]21`: the IC90 was > 50 µM (inactive). With `CN1c2ccc(-c3cccc(F)c3)cc2[C@H]2[C@H](CCN2C(=O)Cc2cccnc2)[C@H]1CO`, the IC90 was > 50 µM (inactive).

For the compound `CC(C)NC(=O)N1CC[C@@H]2[C@@H](CO)N(C)c3ccc(-c4ccc(F)cc4)cc3[C@@H]21`, the IC90 is > 50 µM (inactive). With `COCC(=O)N1CC[C@@H]2[C@@H](CO)N(C)c3ccc(-c4cccc(F)c4)cc3[C@@H]21`, the IC90 was > 50 µM (inactive). `CC(=O)c1ccc(N2CC3(CN(C(=O)c4ccc5c(c4)OCO5)C3)C2)cc1`: the IC90 is > 50 µM (inactive).
